Measurements from patent publication US8466111B2, “Cyclopenta{G}quinazoline derivatives for the treatment of rheumatoid arthritis or acute myeloid leukaemia” (BTG International Limited, priority 2008, dated 2013).
Where two headings read alike, the source gives them in different places.

Columns and labels:
[1] = target: T1, FR-β (Homo sapiens, UniProt P14207); test: Intact cell competitive binding of [3H]-folic acid to FR-β (CHO-β cells); settings: for FR-β binding affinity relative to folic acid: [3H]-folic acid displacement, 10 min at 4° C.
T1 construct: expressed in transfected cells; host or cells: Chinese Hamster Ovary cells (CHO-β / CHO-FR-β)
Protocol: (§1) An intact cell binding assay for competitive binding of [^3H]-folic acid and novel anti-folate drugs to FR-β and FR-α was performed essentially as described previously. See Mol. Pharmacol. 1995; 48: […] and Cancer Res. 1995; 55(17): 3795-3802 (both Westerhof et al.). Briefly, CHO-β cells (FR-β transfected Chinese Hamster Ovary cells) and KB cells (FR-α expressing cells) were detached by incubation in PBS+1 mM EDTA. Detached cells were suspended in ice-cold HEPES-buffered saline (140 mM NaCl, 20 mM HEPES, 6 mM KCl, 2 mM MgCl2, 6 mM D-glucose, pH 7.4 with NaOH) to a cell concentration of 3×10^6 and 1×10^6 cells/ml, respectively. One ml of cell suspension was added to a series of Eppendorf tubes containing […] [^3H]-folic acid (specific radioactivity: 2,000 dpm/μmol) in the absence or presence of increasing concentrations of natural folate or folate antagonists. Following 10 minutes at 4° C., cells were centrifuged in an Eppendorf centrifuge (30 s, 10,000 rpm), the supernatant was aspirated and cell pellets were resuspended in 200 μl water and analysed for radioactivity (Optima Gold scintillation fluid, United Technologies, Packard, Brussels, Belgium). Non-specific binding of [^3H] […] For comparison, data for affinities of the RFC for natural folates and folate antagonists were presented from previous studies. See. Mol Pharmacol 1995; 48: 459-471 Westerhof et al.) and Cancer Res. 2005; 65(24): 11721-11728 (Gibbs et al.).

[2] = tested on: human monocytic-macrophage THP1 cells; test: Cell proliferation inhibition, THP1 cells; assay type: cell-based; settings: read-out: Growth inhibitory effects, IC50
Protocol: In other experiments human monocytic-macrophage THP1 cells were tested for antiproliferative effects of folate antagonists. To this end, 1 ml of cell suspension containing 1.25×10^5 cells were plated in individual wells of a 24-well tissue culture plate and incubated with 8 concentrations (with 2.5-fold increments) of folate antagonist drugs. After 72 hours drug exposure cell counts were performed with a haemocytometer and viability was checked by trypan blue exclusion.

[3] = tested on: CHO/FR-β cells; test: Cell proliferation inhibition, CHO-FR-β cells; assay type: cell-based, Chinese Hamster; settings: for Effect of addition of folic acid on growth inhibitory activity: 1 μM folic acid to block FR
Protocol: (§2) Cell proliferation inhibition assay CHO-WT and CHO-FRβ cells were seeded in individual wells of a 24-well tissue culture plate at a density of 1×10^4/cm^2. […] After 72 hours incubation, cells were harvested by trypsinization and counted for cell viability as described before. See Mol. Pharmacol. 1999; 55(4): 761-769 (Jansen et al.).

[4] = target: T2, RFC (reduced folate carrier) (Homo sapiens, UniProt P41440); settings: cited from earlier work
T2 sequence (P41440 1-591): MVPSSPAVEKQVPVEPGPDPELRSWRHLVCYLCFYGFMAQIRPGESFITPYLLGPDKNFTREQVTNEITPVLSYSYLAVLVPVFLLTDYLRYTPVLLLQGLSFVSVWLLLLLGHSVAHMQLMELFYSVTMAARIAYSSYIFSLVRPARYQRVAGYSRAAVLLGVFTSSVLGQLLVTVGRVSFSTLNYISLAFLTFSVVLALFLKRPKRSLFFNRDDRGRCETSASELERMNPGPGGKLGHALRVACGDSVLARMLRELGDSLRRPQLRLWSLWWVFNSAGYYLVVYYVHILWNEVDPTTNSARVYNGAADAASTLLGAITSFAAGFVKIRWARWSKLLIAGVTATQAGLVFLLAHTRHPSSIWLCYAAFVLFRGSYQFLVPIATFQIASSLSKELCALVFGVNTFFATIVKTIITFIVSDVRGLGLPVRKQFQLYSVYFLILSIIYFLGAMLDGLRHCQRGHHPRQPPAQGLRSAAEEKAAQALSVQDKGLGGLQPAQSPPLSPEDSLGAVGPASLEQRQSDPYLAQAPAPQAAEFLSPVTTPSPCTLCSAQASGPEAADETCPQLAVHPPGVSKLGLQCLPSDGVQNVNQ

[5] = tested on: CHO/WT cells; test: Cell proliferation inhibition, CHO-WT cells; assay type: cell-based, Chinese Hamster; settings: 72 hours
Protocol: as §2

[6] = tested on: macrophages (3A5) in synovial sublining layer; test: Synovial tissue immunohistochemistry of RA patients treated with MTX; assay type: in vivo, human; settings: after 4 months of MTX, 219 before treatment, p=0.14
Protocol: In this study we analysed synovial tissue biopsies derived from the knee joints of 15 RA-patients with active disease before treatment and after 4 months of treatment with MTX (starting dose of MTX: 7.5 mg/week; increasing stepwise to 15 mg/week over 12 weeks). Active disease was defined as ≧6 swollen or tender joints and levels of moderate or worse on the physician's and patient's assessments of disease activity (Disease Activity Score-28; DAS-28). All patients had at least 1 clinically involved knee joint. Low dose prednisone (<10 mg/day) and concomitant stable doses of nonsteroidal anti-inflammatory drug (NSAID) treatment were allowed. None of the patients ever used MTX before enrolling the study. In patients taking other DMARDs, the treatment was terminated following a washout phase of 28 days. […]
Immunohistochemical staining of cryostat sections (4 μm) of synovial tissue biopsies from RA patients and controls was performed using a 3-step immunoperoxidase method as described previously. […] Stained sections were analysed for FR-β, 3A5 and CD3 expression by digital image analysis, as described previously. […] Positive cells were evaluated by analysing 18 consecutive hpfs, scoring numbers of positive cells in the intimal lining layer and the synovial sublining per mm^2.

[7] = target: T3, FR-α (Homo sapiens, UniProt P15328); test: Intact cell competitive binding of [3H]-folic acid to FR-α (KB cells); settings: FRα (KB) versus FR-β (CHO-β)
T3 construct: KB cells (FR-α expressing cells); host or cells: KB cells
Protocol: as §1, with “Mol Pharmacol 1995; 48: 459-471 Westerhof et al.) and Cancer Res. 2005; 65(24): 11721-11728 (Gibbs et al.).” left out

T1 sequence (P14207 17-230): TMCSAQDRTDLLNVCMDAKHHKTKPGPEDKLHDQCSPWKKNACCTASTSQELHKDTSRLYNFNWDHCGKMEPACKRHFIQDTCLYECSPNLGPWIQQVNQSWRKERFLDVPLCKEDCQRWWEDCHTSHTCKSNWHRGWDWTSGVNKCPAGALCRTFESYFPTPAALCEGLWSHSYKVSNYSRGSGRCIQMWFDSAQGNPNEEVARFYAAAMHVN
T3 sequence (P15328 25-234): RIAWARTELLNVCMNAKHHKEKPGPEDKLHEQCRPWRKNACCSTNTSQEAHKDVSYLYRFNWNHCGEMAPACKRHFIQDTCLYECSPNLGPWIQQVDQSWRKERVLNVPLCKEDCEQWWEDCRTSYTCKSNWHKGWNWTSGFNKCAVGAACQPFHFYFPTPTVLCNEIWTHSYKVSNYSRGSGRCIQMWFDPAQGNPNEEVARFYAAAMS

| Compound | FR-β binding affinity [1] | FR-β binding affinity relative to folic acid [1] | IC50 ([2]; Homo sapiens, THP-1, 72 h) [nM] | further results |
| --- | --- | --- | --- | --- |
| C#CN(Cc1cc2c(=O)[nH]c(N)nc2cc1C)c1ccc(C(=O)N[C@@H](CCC(=O)CN[C@H](CCCC(=O)O)C(=O)O)C(=O)O)c(F)c1 [CB300635] | relatively high binding affinity | 161 % of folic acid | 4850 ± 285 | Effect of addition of folic acid on growth inhibitory activity [3]: abrogated activity; Growth inhibition of CHO/FR-β cells ([3]; 72 hours): not markedly potent; Affinity for RFC [4]: poor affinity for RFC |
| Cc1nc2ccc(CN(C)c3ccc(C(=O)N[C@@H](CCC(=O)O)C(=O)O)s3)cc2c(=O)[nH]1 [Raltitrexed] |  |  | 2.4 ± 0.5 |  |
| C#CCN(c1ccc(C(=O)N[C@@H](CCC(=O)N[C@H](CCC(=O)O)C(=O)O)C(=O)O)cc1)C1CCc2cc3nc(CO)[nH]c(=O)c3cc21 (mixture of isomers) [BGC 945] | relatively high binding affinity | 89 % of folic acid | 3630 ± 350 | Extracellular concentration inducing growth inhibition of CHO/WT cells [5]: > 1000 nM; Effect of addition of folic acid on growth inhibitory activity [3]: completely abrogated; Concentration inducing growth inhibition of CHO/FR-β cells ([3]; 72 hours): 10 to 50 nM; Differential in activity between control CHO cells and FR-β transfected cells ([3]; CHO/WT versus CHO/FR-β): largest differential in activity; Affinity for RFC [4]: poor affinity for RFC |
| C#CCN(Cc1cc2c(=O)[nH]c(C)nc2cc1C)c1ccc(C(=O)N[C@@H](CCc2nn[nH]n2)C(=O)O)c(F)c1 [BGC 9331] |  |  | 8.7 ± 0.8 |  |
| C#CCN(c1ccc(C(=O)N[C@@H](CCC(=O)N[C@H](CCC(=O)O)C(=O)O)C(=O)O)cc1)[C@H]1CCc2cc3nc(CO)[nH]c(=O)c3cc21 [(6S)-BGC 945] |  | 46 % of folic acid |  |  |
| Pemetrexed |  |  |  | IC50 ([2]; RPMI-1640 with 2.2 μM folic acid, 72 hours drug exposure, mean ± S.D. of 3 experiments): 10.7 ± 2.2 nM |
| Cc1c(CNc2ccc(C(=O)N[C@@H](CCCNC(=O)c3ccccc3C(=O)O)C(=O)O)cc2)cnc2nc(N)nc(N)c12 [PT644] | affinity comparable to MTX |  | 1 ± 0.4 |  |
| CN(Cc1cnc2nc(N)nc(N)c2n1)c1ccc(C(=O)N[C@@H](CCC(=O)O)C(=O)O)cc1 [MTX, methotrexate] |  |  | 7.1 ± 0.5 | FR-β binding affinity, fold lower than for folic acid [1]: approximately 50 fold; Median numbers of macrophages after MTX treatment [6]: 119 positive cell counts in the synovial sublining layer/mm^2 |
| Nc1nc2c(c(=O)[nH]1)CC(CCc1ccc(C(=O)N[C@@H](CCC(=O)O)C(=O)O)cc1)CN2 (stereo partly shown) [DDATHF, 5,10-dideazatetrahydrofolate] | moderate to high binding affinities | 27 % of folic acid | 9.8 ± 0.8 | FRα binding affinity, fold higher than FR-β [7]: 2.5 fold |
| Nc1nc(N)c2nc(CNc3ccc(C(=O)N[C@@H](CCCNC(=O)c4ccccc4C(=O)O)C(=O)O)cc3)cnc2n1 [PT523] |  | 0.3 % of folic acid | 2.2 ± 0.3 |  |
| Nc1nc2c(c(=O)[nH]1)SC(CCc1ccc(C(=O)N[C@@H](CCC(=O)O)C(=O)O)s1)CN2 (stereo partly shown) [AG2034] | moderate to high binding affinities | 54 % of folic acid | 3.2 ± 0.2 | FRα binding affinity, fold higher than FR-β [7]: 2.5 fold; Growth inhibition of CHO/WT cells [5]: displayed a growth inhibitory potential; Abrogation of growth inhibitory effects by FR-β blocking (folic acid) and RFC blocking (LV) ([3]; folic acid 1 μM or leucovorin 20 nM, CHO/WT and CHO/FR-β): only partial |
| Cc1nc2ccc3ccc(CNc4ccc5c(c4)CN([C@@H](CCC(=O)O)C(=O)O)C5=O)cc3c2c(=O)[nH]1 [GW1843] | relatively high binding affinity |  | 1.6 ± 0.1 |  |
